Peptide text beside a SMILES is read from it. * marks the point of attachment. Palmitoyl = CCCCCCCCCCCCCCCC(=O)*
Key:
rat thoracic aorta rings = molecular target: T1, rat thoracic aorta rings (Rattus norvegicus, UniProt P49684); assay: Modulation of hUII-mediated rat aortic ring contraction; conditions: for Emax: read-out: hUII Emax after pepducin pretreatment
T1 sequence (P49684 1-386): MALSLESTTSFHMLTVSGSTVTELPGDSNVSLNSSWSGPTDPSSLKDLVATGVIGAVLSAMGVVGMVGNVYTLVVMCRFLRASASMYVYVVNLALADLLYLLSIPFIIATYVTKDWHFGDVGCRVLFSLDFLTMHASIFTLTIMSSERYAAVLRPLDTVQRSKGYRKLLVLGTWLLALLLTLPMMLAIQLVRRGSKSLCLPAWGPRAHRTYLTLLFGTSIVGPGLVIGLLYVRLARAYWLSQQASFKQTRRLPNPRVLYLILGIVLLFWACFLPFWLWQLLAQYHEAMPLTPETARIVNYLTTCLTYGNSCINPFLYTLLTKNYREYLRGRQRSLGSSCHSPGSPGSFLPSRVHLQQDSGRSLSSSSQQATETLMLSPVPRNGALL
Description: Each replicate (n) was conducted on tissue obtained from at least three different animals. Data represent mean ± SEM.
Adult male Sprague-Dawley rats (Charles-River) weighing 250–300 g were housed in cages under controlled illumination (12:12 h light–dark cycle), humidity, and temperature (21–23 °C) and had free access to tap water and rat chow. All experimental procedures were performed in accordance with regulations and ethical guidelines from the Canadian Council for the Care of Laboratory Animals and received approvals of the institutional animal care and use committee of the Institut National de la Recherche Scientifique—Centre Armand-Frappier Santé Biotechnologie. As previously described ([17], [18]), the thoracic aorta was cleared of surrounding tissue and then excised from the aortic arch to the diaphragm. Conjunctive tissues were next removed from the thoracic aorta and the vessels were divided into five rings of 4 mm. The endothelium of each aortic ring was removed by gently rubbing the vessel intimal surface. Aortic rings were then placed in a 5 ml organ bath filled with oxygenated normal Krebs–Henseleit buffer. Eighty microliters of a 2.5 M potassium chloride solution (40 mM final concentration) was used to evaluate maximal contractile responses of each vessel. […] Cumulative concentration–response curves to synthetic peptides were obtained by increasing the concentration of each peptide in the remaining organ chambers (10^−11–10^−5 M).

hUT = molecular target: T2, hUT (Homo sapiens, UniProt Q9UKP6); assay: IP1 production, IP-One terbium immunoassay, CHO-hUT cells; format: cell-based; design: expressed in transfected cells; host or cells: CHO-K1 cells stably expressing hUT (gift from H. Vaudry and C. Dubessy, University of Rouen); conditions: for IP1 production efficacy at 10^−5 M: 40 min, normalized to the hUII maximum effect; for EC50: 40 min incubation at 37 °C, mean ± SEM of at least three independent experiments in triplicate, read-out: IP1 production pEC50 (converted)
T2 sequence (Q9UKP6 1-389): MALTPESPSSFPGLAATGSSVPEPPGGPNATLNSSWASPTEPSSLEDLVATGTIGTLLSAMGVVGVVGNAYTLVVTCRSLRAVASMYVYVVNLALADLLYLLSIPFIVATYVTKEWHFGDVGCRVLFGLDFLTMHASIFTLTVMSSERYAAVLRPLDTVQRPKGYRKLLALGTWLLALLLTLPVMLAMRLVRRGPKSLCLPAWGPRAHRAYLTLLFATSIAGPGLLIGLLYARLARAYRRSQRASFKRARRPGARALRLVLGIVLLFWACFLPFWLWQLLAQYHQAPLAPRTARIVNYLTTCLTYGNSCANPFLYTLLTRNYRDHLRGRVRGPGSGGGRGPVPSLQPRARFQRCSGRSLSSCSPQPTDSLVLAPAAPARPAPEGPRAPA
Description: Figure 3 IP1production (A and B) and ERK1/2phosphorylation (C and D) kinetics and concentration dependence following hUT activation. IP1 production was evaluated using the IP-One terbium immunoassay kits while ERK1/2 phosphorylation was measured by western blot in CHO-K1 cells stably expressing hUT. […] Each curve represents the mean ± SEM of at least three independent experiments performed in triplicate.
This assay, performed with the IP-One terbium immunoassay kits from Cisbio, was used according to the manufacturer recommendation and as previously described ([43]). Briefly, CHO-hUT cells were grown in 10-cm dishes for 24 h. The cells were then starved without serum. The next day, cells were washed once with PBS and collected in PBS containing 20 mM EDTA. For the assay, 80,000 cells per well (96-well plate) were used. […] IP1-d2 and anti-IP1-cryptate were added for an additional 2 h at room temperature. Plates were read on a Flexstation 3 microplate reader.

HEK 293-hUT cells = assay: Cell proliferation, MTT assay and flow cytometry, HEK 293-hUT cells; format: cell-based; conditions: 10^−6 M, three independent experiments in triplicate
Description: Each bar corresponds to the mean ± SEM obtained from three independent experiments conducted in triplicate.
HEK 293-hUT cell proliferation was evaluated by flow cytometry using propidium iodide DNA staining. […] Next, cells were detached, fixed with cold 70% ethanol, and then stored at –20 °C for at least 2 h. Cells were centrifuged at 200 rpm for 10 min at 4 °C and washed at least once with cold PBS. Cells were then resuspended in Triton X-100 (0.1%) supplemented with propidium iodide (500 μg mL^−1), and 200 μg mL^−1 of DNAse-free RNAse A in PBS. Data, expressed as the mean ± SEM of at least three independent experiments, were acquired on a FACScan (BD Biosciences), and results were analyzed with the FlowJo v10 software. The proliferation index is defined as the total number of divisions divided by the number of cells that went into division.

CC(C)[C@H](NC(=O)[C@@H]1CSSC[C@H](NC(=O)[C@H](CC(=O)O)NC(=O)[C@@H]2CCCN2C(=O)[C@@H](NC(=O)[C@@H](N)CCC(=O)O)[C@@H](C)O)C(=O)N[C@@H](Cc2ccccc2)C(=O)N[C@@H](Cc2c[nH]c3ccccc23)C(=O)N[C@@H](CCCCN)C(=O)N[C@@H](Cc2ccc(O)cc2)C(=O)N1)C(=O)O [hUII, urotensin II, reference compound]
hUII-mediated contraction pEC50, control (no pretreatment) (rat thoracic aorta rings; rat aortic rings, hUII alone, mean ± SEM, n = 19): 8.69 ± 0.08
Emax (hUT): 97 ± 1%
time to plateau of IP1 production (hUT; CHO-hUT, time course): 40 min
HEK 293-hUT cell proliferation (HEK 293-hUT cells): able to induce HEK 293-hUT cell proliferation

CCCCCCCCCCCCCCCC(=O)N[C@@H](Cc1c[nH]c2ccccc12)C(=O)N[C@@H](CC(C)C)C(=O)N[C@@H](CO)C(=O)N[C@@H](CCC(N)=O)C(=O)N[C@@H](CCCNC(=N)N)C(=O)N[C@@H](C)C(=O)N[C@@H](CO)C(=O)N[C@@H](Cc1ccccc1)C(=O)N[C@@H](CCCCN)C(=O)N[C@@H](CCCNC(=N)N)C(=O)N[C@@H](C)C(=O)N[C@@H](CCCNC(=N)N)C(=O)N[C@@H](CCCNC(=N)N)C(N)=O [[Trp^1, Leu^2]hUT-Pep3] (Palmitoyl-WLSQRASFKRARR-NH2)
Emax (rat thoracic aorta rings): 35 ± 6%
IP1 production efficacy at 10^−5 M (hUT; CHO-hUT): ~60%
EC50 (hUT; CHO-hUT): > 1000 nM
HEK 293-hUT cell proliferation (HEK 293-hUT cells): able to induce HEK 293-hUT cell proliferation

CCCCCCCCCCCCCCCC(=O)N[C@@H](CCCNC(=N)N)C(=O)N1CCC[C@H]1C(=O)N[C@@H](CC(C)C)C(=O)N[C@@H](CC(=O)O)C(=O)N[C@H](C(=O)N[C@H](C(=O)N[C@@H](CCC(N)=O)C(=O)N[C@@H](CCCNC(=N)N)C(=O)N1CCC[C@H]1C(=O)N[C@@H](CCCCN)C(=O)NCC(=O)N[C@@H](Cc1ccc(O)cc1)C(N)=O)C(C)C)[C@@H](C)O [hUT-Pep2] (Palmitoyl-RPLDTVQRPKGY-NH2)
shift of hUII / URP concentration–response curve (rat thoracic aorta rings; rat aortic rings, pepducin 10^−6 M pretreatment): significant rightward shift in the concentration–response curve of hUII but not URP
Emax (rat thoracic aorta rings): 86 ± 3%
IP1 production efficacy at 10^−5 M (hUT; CHO-hUT): around 35%
EC50 (hUT; CHO-hUT): > 1000 nM
HEK 293-hUT cell proliferation (HEK 293-hUT cells): not hUT-Pep2 were able to induce HEK 293-hUT cell proliferation

— paper PMC8424217 (The Journal of Biological Chemistry, 2021)
